Measurements as given in patent publication US20250326814A1, “MODIFIED OXYNTOMODULIN AND METHODS OF USE THEREOF” (OPKO BIOLOGICS LTD., priority 2024, published 2025).
“Also recorded” adds a separate entry of the source. Non-standard residues stand in square brackets, D forms with d. Residues, ends and D or L forms follow the SMILES beside them. *: point of attachment. X1 = O=C(O)CCCCCCCCCCCCCCCCCCC(=O)N[C@@H](CCC(=O)NCCOCCOCC(=O)NCCOCCOCC(=O)N[C@@H](CCCCNC(=O)C*)C(=O)NCC(=O)O)C(=O)O; Aib = CC(C)(N)C(=O)O

What was measured:
[1] = biological target: T1, glucagon-like peptide-1 (GLP1) receptor (Homo sapiens, UniProt P43220); assay: GLP-1 activity EC50 of OXM analogs and GLP-1 therapeutics (Example 4, Table 9); type: cell-based; details: GLP-1 activity; Table 9; read-out: EC50
T1 construct: expressed in transfected cells; host or cells: CHO-K1
T1 sequence (P43220 24-463): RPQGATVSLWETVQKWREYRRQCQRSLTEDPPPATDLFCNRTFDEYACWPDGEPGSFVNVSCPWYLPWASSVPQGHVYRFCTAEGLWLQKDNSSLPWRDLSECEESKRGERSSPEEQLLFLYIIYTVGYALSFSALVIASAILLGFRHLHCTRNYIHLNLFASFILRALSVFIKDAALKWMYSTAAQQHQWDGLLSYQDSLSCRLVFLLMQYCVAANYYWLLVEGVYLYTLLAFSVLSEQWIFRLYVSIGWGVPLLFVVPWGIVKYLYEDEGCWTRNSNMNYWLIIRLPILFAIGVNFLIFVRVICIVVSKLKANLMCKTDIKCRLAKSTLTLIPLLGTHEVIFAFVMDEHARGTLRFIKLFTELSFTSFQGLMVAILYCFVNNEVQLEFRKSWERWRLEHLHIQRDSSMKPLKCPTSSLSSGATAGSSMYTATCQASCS
Description: The potencies of the modified OXM analogs newly disclosed in the present application, the OXM Analog alone, and the PEGylated OXM analog were examined and compared by measuring the EC50 of both receptors, glucagon-like peptide-1 (GLP1) and glucagon (GCGR).

GLP1 = GLP1 (Homo sapiens, UniProt P43220); assay: GLP-1 activity in vitro of PEGylated and acylated OXM peptide analogs (Table 12); type: cell-based
Sequence of GLP1 (P43220 24-463): as above
Method: (§4) The potential benefits of novel acylated OXM products relative to the PEGylated OXM peptide were evaluated for GLP-1 and Glucagon activity in vitro, molecular weight, dosing, and efficacy in a DIO Mouse model.
(§5) The potency of the acylated OXM peptides was compared with the native OXM peptide alone and Pegylated OXM peptide to evaluate the impact of acylation on GLP-1 and Glucagon activities.

GCGR = GCGR (Homo sapiens, UniProt P47871); assay: Glucagon activity in vitro of PEGylated and acylated OXM peptide analogs (Table 12); type: cell-based
Sequence of GCGR (P47871 26-477): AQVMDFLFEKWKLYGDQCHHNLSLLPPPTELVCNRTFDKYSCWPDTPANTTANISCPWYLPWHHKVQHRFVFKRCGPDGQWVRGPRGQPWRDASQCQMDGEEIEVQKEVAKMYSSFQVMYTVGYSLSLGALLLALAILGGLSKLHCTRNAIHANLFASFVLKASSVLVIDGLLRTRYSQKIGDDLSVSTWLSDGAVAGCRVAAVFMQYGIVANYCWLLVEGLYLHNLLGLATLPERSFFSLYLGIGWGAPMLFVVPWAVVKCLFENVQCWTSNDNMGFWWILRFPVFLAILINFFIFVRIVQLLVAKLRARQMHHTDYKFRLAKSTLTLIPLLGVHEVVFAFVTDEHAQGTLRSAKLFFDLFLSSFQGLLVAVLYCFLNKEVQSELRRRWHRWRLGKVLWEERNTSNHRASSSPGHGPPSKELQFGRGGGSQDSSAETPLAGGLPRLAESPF
Method: as §4, §5

DIO mice [2] = assay: Body weight and food intake in DIO mice, 4 weeks daily treatment; type: in vivo
Method: (§1) The animals were individually weighed and analyzed for lipid and cholesterol levels prior to treatment and following completion of the study. The levels of fasting glucose and insulin levels were analyzed, and oral glucose tolerance test was performed and compared between groups The levels of plasma triglycerides and cholesterol were evaluated at the end of study and compared to base levels prior to treatment. Levels of total cholesterol, triglycerides and glycogen were also examined at the end of study. Histology of liver was used to analyze for lipid droplets in the liver. All tests were conducted using routine methods known in the art.
The mice used in the studies were the gubra diet-induced obese (DIO) mouse model. This mouse model is fed a high fat diet that results in rapid weight gain. The DIO mice were based on male C57BI/6J mice and ready for experiment after 18 weeks on a 60% high fat diet.
To ensure accurate monitoring of weight changes over the course of the study, the animals were weighed daily with precision, prior to dosing at 7:00 AM. Body weight data was recorded in two formats: (1) Absolute measurements: The direct weight of the animal each day, and (2) Relative measurements: The weight expressed as a percentage relative to the body weight recorded on Day 1.
(§2) Sixty C57BL/6JRj male mice were fed a high fat diet (60% HFD, D12492—Ssniff) for 20 weeks before treatment start. […] Body weight and food intake (24 h) were measured daily. In week 3, an OGTT study was performed. Baseline and preterminal fasting blood glucose and plasma insulin were assessed. Preterminal plasma TC and TG were assessed. Terminal endpoints included liver and heart weight, liver TC, TG, […] and lipid content (HE staining).

DIO mice [3] = assay: Body composition (fat and lean tissue mass) in DIO mice; type: in vivo
Method: The body composition of mice was assessed by an EchoMRI 3 in 1 Body composition analyzer (EchoMRI, US). Non-anaesthetized animals were placed in a plastic tube inside the MRI scanner for approximately 80 seconds. The body composition was reported as fat mass and fat free mass (lean mass).
as §2

DIO mice [4] = assay: Liver cholesterol, triglyceride and glycogen in DIO mice; type: in vivo
Method: (§3) After termination, the liver was collected and weighed. Specific liver samples and biopsies were dissected and processed as specified in table “Termination samples” in the protocol and further described below.
The Liver TG TC piece (25±5 mg) was dissected from the right medial lobe, with no edges, on the opposite side of the sponsor piece. The samples were weighed individually, collected in tubes and frozen in liquid nitrogen. The samples were stored at −70° C.
Liver Triglycerides (TG) and Total cholesterol (TC): The liver content of triglyceride and total cholesterol was extracted from the liver samples into 5% NP-40, in a homogenization process followed by a heating step, where the samples were heated twice to 90° C. The samples were then centrifuged, and the supernatant was collected. The TG and TC levels were then determined by measurement on the cobas c 501 autoanalyzer with the relevant commercial kits from Roche Diagnostics.
as §2

DIO mice [5] = assay: Liver H&E staining for lipid droplets / liver lipid in DIO mice; type: in vivo
Method: In summary, glass slides with paraffin embedded sections were deparaffinated in xylene and rehydrated in series of graded ethanol.
Slides treated with histochemical and immunohistochemical stains were scanned using a 20× objective in a ScanScope AT slide scanner (Aperio).
Hematoxylin & Eosin (H&E) staining: Sections of FFPE tissue were incubated in Mayer's Hematoxylin (Dako), washed in tap water, stained in Eosin Y solution (Sigma-Aldrich), dehydrated in graded ethanol and cover slipped.
as §2

DIO mice [6] = assay: Plasma cholesterol and triglyceride in DIO mice; type: in vivo
Method: For termination blood samples, during anesthesia with isoflurane, the abdominal cavity was opened, and cardiac blood was drawn with a syringe into a Microvette/Vacuette of appropriate dimensions with anticoagulant and mixed by inversion 5 times. Blood was placed at 4° C. until centrifuged at 3000 g for 10 minutes. The plasma supernatants were transferred to new tubes and immediately frozen on dry ice. The samples were stored at −70° C.
Alanine transaminase (ALT), Aspartate transaminase (AST), Triglycerides (TG) and Total Cholesterol (TC): Blood samples were collected in heparinized tubes and plasma was separated and stored at −70° C. until analysis. Samples were measured using commercial kits (Roche Diagnostics), on the cobas c 501 autoanalyzer.
as §2

DIO mice [7] = assay: Fasting blood glucose and plasma insulin in DIO mice; type: in vivo
Method: For in vivo blood samples, tail-vein, tongue or cheek blood was collected in a Microvette tube of appropriate dimensions with anticoagulant and mixed by inversion 5 times. Blood was placed at 4° C. until centrifuged at 3000 g for 10 minutes. The plasma supernatants were transferred to new tubes and immediately frozen on dry ice. The samples were stored at −70° C.
Insulin: Blood samples were collected in heparinized tubes and plasma was separated and stored at −70° C. until analysis. Insulin was measured using the commercial MSD platform (Meso Scale Diagnostics).
as §2

DIO mice [8] = assay: Oral glucose tolerance test in DIO mice; type: in vivo
Method: Animals were housed in a clean cage and fasted for 4 hours prior to oral or intraperitoneal glucose administration. At timepoint 0, mice receive an oral or intraperitoneal dose of 10 ml/kg of 200 mg/ml standard glucose solution (Fresenius Kabi, DK). At timepoint 0, mice received an oral or intraperitoneal dose of 4 ml/kg of standard 500 mg/ml glucose solution (Fresenius Kabi, DK). Blood samples (10 μl) were collected at various timepoints defined in the study protocol into heparinized glass capillary tubes and immediately suspended in glucose/lactate system solution buffer (EKF-diagnostics, Germany). Blood glucose (BG) was measured using a BIOSEN c-Line glucose meter (EKF-diagnostics, Germany) according to the manufacturer's instructions. After the last blood sample and/or drug dose, the animals were returned to the normal feeding schedule.
as §2

DIO mice [9] = assay: Organ weights at termination in DIO mice; type: in vivo; details: mid and high (5 and 15 nmol/kg)
Method: as §3, §2

DIO mice [10] = assay: Weight loss in DIO mice with OPK-88604 and OPK-88006, 30 nmoles/kg; type: in vivo; details: vs placebo, listed as OPK-88604
Method: as §1
DIO mice with weights of around 55 grams were divided into three groups and treated with placebo, 30 nmoles/kg of OPK-88604, or 30 nmoles/kg of OPK-88006 for 4 weeks. The animals were weighed daily for the period of treatment.

[11] = Solubility data of the binder complex; type: physicochemical
Description: The structure and characteristics of the binder complex are detailed in Table 4 below.

[12] = 15 nmol/kg daily, 28 days, OPK-88604 vs semaglutide
[13] = 28 day treatment, vs semaglutide
[14] = mid and high (5 and 15 nmol/kg)
[15] = 28 day treatment, vs semaglutide, listed as OPK-88604

Compound: CC[C@H](C)[C@H](NC(=O)[C@H](CC(N)=O)NC(=O)[C@H](CC(N)=O)NC(=O)[C@H](CCCNC(=N)N)NC(=O)[C@H](CC(N)=O)NC(=O)[C@H](CCCNC(=N)N)NC(=O)CNC(=O)C(C)(C)NC(=O)[C@H](CC(N)=O)NC(=O)[C@H](CC(C)C)NC(=O)[C@H](CC(C)C)NC(=O)[C@H](Cc1c[nH]c2ccccc12)NC(=O)[C@H](CCC(N)=O)NC(=O)[C@@H](NC(=O)[C@H](Cc1ccccc1)NC(=O)[C@H](CCC(=O)O)NC(=O)[C@H](CCC(N)=O)NC(=O)[C@H](C)NC(=O)[C@H](CCCCN)NC(=O)[C@H](CCCCN)NC(=O)[C@H](CO)NC(=O)[C@H](CC(=O)O)NC(=O)[C@H](CC(C)C)NC(=O)[C@H](Cc1ccc(O)cc1)NC(=O)[C@H](CCCCN)NC(=O)[C@H](CO)NC(=O)[C@H](Cc1ccc(O)cc1)NC(=O)[C@H](CC(=O)O)NC(=O)[C@H](CO)NC(=O)[C@@H](NC(=O)[C@H](Cc1ccccc1)NC(=O)[C@@H](NC(=O)CNC(=O)[C@H](CCC(N)=O)NC(=O)C(C)(C)NC(=O)[C@@H](N)Cc1c[nH]cn1)[C@@H](C)O)[C@@H](C)O)C(C)C)C(=O)N[C@@H](C)C(=O)N[C@@H](CSCC(=O)NCCCC[C@H](NC(=O)COCCOCCNC(=O)COCCOCCNC(=O)CC[C@H](NC(=O)CCCCCCCCCCCCCCCCCCC(=O)O)C(=O)O)C(=O)NCC(=O)O)C(N)=O [Variant 1] (H-H[Aib]QGTFTSDYSKYLDSKKAQEFVQWLLN[Aib]GRNRNNIAC(X1)-NH2)
- EC50 [1]: 0.09 nM
- EC50 (GLP1): 0.0159 nM
- EC50 (GCGR): 0.164 nM
- GCGR/GLP-1R (GCGR; ratio of EC50 activity): 10.3
- food consumption / cumulative food intake (FIG. 17B, 18B) (DIO mice [2]; [12]): Reduced food consumption significantly less than treatment with semaglutide
- weight loss from baseline (FIG. 17A, 18A) (DIO mice [2]; 15 nmol/kg daily, 28 days, OPK-88604 vs semaglutide vs placebo): similar
- relative body weight (day 28), P compared to Vehicle (FIG. 16B) (DIO mice [2]; Mid, 5 nmol/kg QD SC): < 0.05
- absolute and relative body weight and fat mass compared to the vehicle group (DIO mice [2]; high (15 nmol/kg), four weeks): reduced both absolute and relative body weight and fat mass
- relative body weight compared to the vehicle group (DIO mice [2]; mid (5 nmol/kg), four weeks): reduced relative body weight
- relative fat tissue mass / relative lean tissue mass at week 4, P compared to Vehicle (FIG. 22A, 22B) (DIO mice [3]; 15 nmol/kg QD SC): < 0.01
- relative lean body mass and fat mass change from baseline on day 28 (FIG. 24A, 24B) (DIO mice [3]; [12]): statistically similar
- total liver cholesterol, P compared to Vehicle (FIG. 25B) (DIO mice [4]; 15 nmol/kg QD SC): < 0.05
- total liver cholesterol, triglycerides and glycogen, change from baseline on day 28 (FIG. 28A-C) (DIO mice [4]; [13]): significantly more effective in reducing total liver cholesterol, triglycerides, and glycogen
- total liver TC (DIO mice [4]; high (15 nmol/kg)): reduced
- liver TG (total and relative) (DIO mice [4]; [14]): reduced
- relative liver lipid / total liver lipid, P compared to Vehicle (FIG. 31A, 31B) (DIO mice [5]; 15 nmol/kg QD SC): < 0.001
- lipid droplets in liver, H&E staining (FIG. 30A-C) (DIO mice [5]; 28 day treatment, vs placebo and semaglutide, listed as OPK-88604): reduced the amount of lipid droplets in liver compared to placebo and animals treated with semaglutide; also recorded: Significantly reduced the amount of lipid droplets in liver compared to Semaglutide
- liver lipid content (total and relative) (DIO mice [5]; high (15 nmol/kg)): reduced
- total plasma cholesterol and triglycerides on day 28 (FIG. 33A, 33B) (DIO mice [6]; [13]): significantly more effective in reducing total plasma cholesterol and triglycerides compared to semaglutide
- plasma TC levels at termination (DIO mice [6]; [14]): reduced
- fasting glucose change from baseline on day 28 (FIG. 35A) (DIO mice [7]; [15]): significant decrease in fasting glucose levels compared to semaglutide treatment; also recorded: significantly more effective in lowering fasting glucose levels
- fasting insulin change from baseline on day 28 (FIG. 35B) (DIO mice [7]; [15]): marked increase in insulin levels from baseline compared to semaglutide treatment; also recorded: increased insulin levels compared to Semaglutide
- blood glucose levels at study week 4 (DIO mice [7]; all doses (2, 5, 15 nmol/kg)): reduced blood glucose levels
- plasma insulin levels during the glucose tolerance test and preterminal (DIO mice [7]; high (15 nmol/kg)): decreased
- blood glucose in response to an oral glucose bolus compared to vehicle controls (DIO mice [8]; all OPK-88604 groups (2, 5, 15 nmol/kg)): reduced blood glucose compared to vehicle controls
- glucose AUC in OGTT (FIG. 38B) (DIO mice [8]; treated for 3 weeks, vs semaglutide): statistically lower
- glucose levels in Oral Glucose Tolerance test (FIG. 38A) (DIO mice [8]; treated for 3 weeks, vs semaglutide, listed as OPK-88604): more effective in reducing glucose levels in an Oral Glucose Tolerance test compared to Semaglutide
- heart weight (DIO mice [9]): reduced
- weight loss over 4 weeks (FIG. 41A, 41B) (DIO mice [10]): significant weight loss over 4 weeks compared to placebo

Compound: Eicosanedioic-[…]Glu-(AEEA)2-Lys(Ac-Br)-Gly-OH [Binder Complex]
- Solubility data [11]: Water-based buffer at pHs 6.5-7.5
